These are literature values, as cited in patent publication US11103490B2, “Clevidipine emulsion formulations containing antimicrobial agents” (Chiesi Farmaceutici, S.P.A., priority 2010, dated 2021).

For data set [1] the following is noted: in vivo.

With `CCCC(=O)OCOC(=O)C1=C(C)NC(C)=C(C(=O)OC)C1c1cccc(Cl)c1Cl` (stereo not shown) [Clevidipine, clevidipine], the solubility in lipids result is on record as “moderate to high” and the solubility in water result was “low”. Also, in data set [1], the initial phase half-life result is on record as “about one” and the terminal half-life entry is given as “approximately 15 minutes”.
